Data set [1] has as its system Rat SNL tactile allodynia. Kind of data set: L5/L6 spinal nerve ligation (SNL) Chung pain model, tactile allodynia (von Frey). In kind it is in vivo. The text has this: The Spinal Nerve Ligation is an animal model representing peripheral nerve injury generating a neuropathic pain syndrome. In this model experimental animals develop the clinical symptoms of tactile allodynia and hyperalgesia. L5/L6 Spinal nerve ligation (SNL) injury was induced using the procedure of Kim and Chung (Kim et al., Pain 50:355-363 (1992)) in male Sprague-Dawley rats (Harlan; Indianapolis, Ind.) weighing 200 to 250 grams.
Anaesthesia was induced with 2% isofluorane in O2 at 2 L/min and maintained with 0.5% isofluorane in O2. Rats were then shaved and aseptically prepared for surgeries. A 2 cm paraspinal incision was made at the level of L4-S2. L4/L5 was exposed by removing the transverse process above the nerves with a small rongeur. The L5 spinal nerve is the larger of the two visible nerves below the transverse process and lies closest to the spine. The L6 spinal nerve is located beneath the corner of the slope bone. A home-made glass Chung rod was used to hook L5 or L6 and a pre-made slip knot of 4.0 silk suture was placed on the tip of the rod just above the nerve and pulled underneath to allow for the tight ligation. The L5 and L6 spinal nerves were tightly ligated distal to the dorsal root ganglion. The incision was closed, and the animals were allowed to recover for 5 days.
Sham control rats underwent the same operation and handling as the experimental animals, but without SNL.
Prior to initiating drug delivery, baseline behavioural testing data is obtained. At selected times after infusion of the Test or Control Article behavioural data can then be collected again.
The assessment of tactile allodynia consisted of measuring the withdrawal threshold of the paw ipsilateral to the site of nerve injury in response to probing with a series of calibrated von Frey filaments (innocuous stimuli). Animals were acclimated to the suspended wire-mesh cages for 30 min before testing. Each von Frey filament was applied perpendicularly to the plantar surface of the ligated paw of rats for 5 sec. A positive response was indicated by a sharp withdrawal of the paw. For rats, the first testing filament is 4.31. Measurements were taken before and after administration of test articles. […] The protocol was repeated until three changes in behaviour were determined (“up and down” method) (Chaplan et al., J. Neurosci. Methods 53:55-63 (1994)). The 50% paw withdrawal threshold was determined as (10^[Xf+kδ])/10,000, where Xf=the value of the last von Frey filament employed, k=Dixon value for the positive/negative pattern, and S=the logarithmic difference between stimuli. The cut-off values for rats were no less than 0.2 g and no higher than 15 g (5.18 filament); for mice no less than 0.03 g and no higher than 2.34 g (4.56 filament). A significant drop of the paw withdrawal threshold compared to the pre-treatment baseline is considered tactile allodynia. […]

For data set [2], the target named is T1, NaV1.7 channels expressed in HEK cells (Homo sapiens, UniProt Q15858).
T1 construct: expressed in transfected cells; host or cells: HEK cells
T1 sequence (Q15858 whole entry): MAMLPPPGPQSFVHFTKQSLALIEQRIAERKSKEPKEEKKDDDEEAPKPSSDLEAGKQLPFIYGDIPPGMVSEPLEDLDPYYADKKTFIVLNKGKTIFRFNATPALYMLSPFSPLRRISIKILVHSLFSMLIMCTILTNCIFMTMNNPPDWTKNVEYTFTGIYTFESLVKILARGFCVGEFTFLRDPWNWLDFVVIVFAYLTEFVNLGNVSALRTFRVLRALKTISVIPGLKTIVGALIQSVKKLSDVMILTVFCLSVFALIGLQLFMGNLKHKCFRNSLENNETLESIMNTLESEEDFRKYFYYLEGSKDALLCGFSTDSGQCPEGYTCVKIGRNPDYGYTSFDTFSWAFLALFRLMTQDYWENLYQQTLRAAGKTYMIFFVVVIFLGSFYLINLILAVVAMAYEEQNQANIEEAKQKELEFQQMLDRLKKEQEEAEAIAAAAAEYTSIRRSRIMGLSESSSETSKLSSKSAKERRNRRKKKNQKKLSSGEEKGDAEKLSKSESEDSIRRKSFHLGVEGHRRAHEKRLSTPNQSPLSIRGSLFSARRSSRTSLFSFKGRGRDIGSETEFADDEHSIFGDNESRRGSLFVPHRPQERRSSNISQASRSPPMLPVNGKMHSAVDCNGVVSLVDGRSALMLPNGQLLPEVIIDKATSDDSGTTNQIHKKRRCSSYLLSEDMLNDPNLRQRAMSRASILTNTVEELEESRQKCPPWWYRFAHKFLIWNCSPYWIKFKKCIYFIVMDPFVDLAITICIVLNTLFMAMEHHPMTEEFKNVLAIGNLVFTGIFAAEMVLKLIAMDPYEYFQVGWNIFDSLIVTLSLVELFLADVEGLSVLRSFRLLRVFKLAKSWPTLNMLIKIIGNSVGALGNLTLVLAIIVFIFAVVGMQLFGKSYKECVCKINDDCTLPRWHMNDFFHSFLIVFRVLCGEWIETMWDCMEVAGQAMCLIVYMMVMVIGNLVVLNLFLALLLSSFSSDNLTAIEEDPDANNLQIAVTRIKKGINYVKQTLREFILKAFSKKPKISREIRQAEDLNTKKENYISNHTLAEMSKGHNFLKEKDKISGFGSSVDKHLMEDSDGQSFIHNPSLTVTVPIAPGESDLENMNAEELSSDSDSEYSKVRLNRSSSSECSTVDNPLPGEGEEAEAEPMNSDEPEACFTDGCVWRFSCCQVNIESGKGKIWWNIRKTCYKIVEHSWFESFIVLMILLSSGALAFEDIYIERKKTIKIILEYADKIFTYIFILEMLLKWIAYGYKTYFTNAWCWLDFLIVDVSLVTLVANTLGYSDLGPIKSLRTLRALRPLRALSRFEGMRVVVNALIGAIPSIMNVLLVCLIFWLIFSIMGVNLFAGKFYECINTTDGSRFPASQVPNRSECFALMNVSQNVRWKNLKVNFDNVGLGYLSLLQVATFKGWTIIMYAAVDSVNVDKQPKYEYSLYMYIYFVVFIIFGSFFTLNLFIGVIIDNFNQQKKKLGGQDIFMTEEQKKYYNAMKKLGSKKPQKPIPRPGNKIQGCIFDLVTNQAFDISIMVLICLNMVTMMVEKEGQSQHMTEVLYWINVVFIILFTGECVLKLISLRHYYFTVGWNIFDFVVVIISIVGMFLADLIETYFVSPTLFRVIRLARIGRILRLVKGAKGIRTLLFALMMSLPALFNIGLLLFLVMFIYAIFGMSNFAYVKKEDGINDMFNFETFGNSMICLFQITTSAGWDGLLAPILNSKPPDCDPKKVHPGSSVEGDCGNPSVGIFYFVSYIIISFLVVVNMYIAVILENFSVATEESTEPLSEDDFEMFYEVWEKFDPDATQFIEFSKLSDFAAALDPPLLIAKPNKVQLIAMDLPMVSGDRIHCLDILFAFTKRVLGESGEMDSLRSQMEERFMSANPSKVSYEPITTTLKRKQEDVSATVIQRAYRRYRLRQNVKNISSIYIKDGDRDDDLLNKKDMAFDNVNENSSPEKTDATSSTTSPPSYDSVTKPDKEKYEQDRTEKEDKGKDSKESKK
Put plainly: NaV1.7 voltage-clamp electrophysiological assay (enhancement of slow inactivation). In kind it is cell-based. The procedure: To examine the effects of compounds on enhancement of slow inactivation of NaV1.7 and NaV1.8 channels expressed in HEK cells the culture media was replaced with an extracellular solution containing (in mM): 137 NaCl, 4 KCl, 1.8 CaCl2, 1 MgCl2, 10 HEPES, 10 glucose, pH adjusted to 7.4 with NaOH. The intracellular solution contained (in mM): 130 KCl, 1 MgCl2, 5 EGTA, 10 HEPES, 5 K2ATP, adjusted to pH 7.3 with KOH. Whole-cell recordings, preparation and application of test compounds were performed in a similar manner to the CaV3.2 electrophysiological assays. Voltage protocols were applied to quantify the effects of test compounds to enhance slow inactivation for NaV1.7 and NaV1.8.

A short description of data set [3]: Rat Early Pharmacokinetic (EPK) study. In kind it is in vivo. Conditions: PO, 30 mg/kg, formulation 10% DMSO/90% CMC; for Tmax: male, Sprague-Dawley, blood. The method, then: Male Sprague-Dawley rats were dosed via oral (PO) gavage in the detailed formulation. Blood samples were collected from the animals at 6 timepoints out to 4 hours post-dose. Pharmacokinetic analysis was performed on the LC-MS/MS measured concentrations for each timepoint of each compound.

Data set [4] addresses T2, CaV3.2 T-type Ca2+ channels expressed in HEK cells (Homo sapiens, UniProt O95180).
T2 construct: expressed in transfected cells; host or cells: HEK cells
Put plainly: CaV3.2 voltage-clamp electrophysiological assay (fast and slow inactivation). In kind it is cell-based. The text has this:
Prior to recording currents from CaV3.2 T-type Ca^2+ channels expressed in HEK cells, the culture media was replaced with extracellular solution (ECS) containing (in mM): 142 CsCl, 10 D-glucose, 2 CaCl2, 1 MgCl2, 10 HEPES, pH adjusted to 7.4 with CsOH. Borosilicate glass patch pipettes, pulled on a P-97 micropipette puller (Sutter Instruments, Novato, Calif.) with typical resistances of 2-4 MW, were backfilled with intracellular solution containing (in mM): 126.5 Cs-methanesulphonate, 2 MgCl2, 10 HEPES, 11 EGTA, 2 Na-ATP, pH adjusted to 7.3 CsOH. […] were recorded in the whole-cell configuration at room temperature (˜21° C.) using an Axopatch 200B (Molecular Devices, Sunnyvale, Calif.) patch-clamp amplifier. Recordings were low-pass filtered at 1 kHz (−3 dB 4-pole Bessel filter), digitized at 2 kHz with a Digidata 1322A interface (Molecular Devices), and acquired using pClamp 9.2 (Molecular Devices). No leak subtraction was used. Test compounds, prepared as 30 mM stock solutions in DMSO and diluted in extracellular buffer, were applied through a gravity driven multi-barrelled array of capillaries (24 gauge) connected to reservoirs controlled by solenoid valves. The effects of compounds on CaV3.2 slow and fast inactivation were evaluated using four different voltage protocols. The voltage dependence of fast and slow channel inactivation was examined using a two pulse protocol. Data were analyzed and fitted using OriginPro v.7.5 (OriginLab, Northampton, Mass.) software.

[5] abbreviates: voltage-dependence of half inactivation, HEK cells, whole-cell.

This note sets out measurements from patent publication US20120220603A1, “SUBSTITUTED HETEROCYCLIC DERIVATIVES FOR THE TREATMENT OF PAIN AND EPILEPSY” (ZALICUS PHARMACEUTICALS LTD., priority 2009, published 2012).

The term Tmax denotes the time at which the peak concentration occurs.

T2 sequence (O95180 whole entry): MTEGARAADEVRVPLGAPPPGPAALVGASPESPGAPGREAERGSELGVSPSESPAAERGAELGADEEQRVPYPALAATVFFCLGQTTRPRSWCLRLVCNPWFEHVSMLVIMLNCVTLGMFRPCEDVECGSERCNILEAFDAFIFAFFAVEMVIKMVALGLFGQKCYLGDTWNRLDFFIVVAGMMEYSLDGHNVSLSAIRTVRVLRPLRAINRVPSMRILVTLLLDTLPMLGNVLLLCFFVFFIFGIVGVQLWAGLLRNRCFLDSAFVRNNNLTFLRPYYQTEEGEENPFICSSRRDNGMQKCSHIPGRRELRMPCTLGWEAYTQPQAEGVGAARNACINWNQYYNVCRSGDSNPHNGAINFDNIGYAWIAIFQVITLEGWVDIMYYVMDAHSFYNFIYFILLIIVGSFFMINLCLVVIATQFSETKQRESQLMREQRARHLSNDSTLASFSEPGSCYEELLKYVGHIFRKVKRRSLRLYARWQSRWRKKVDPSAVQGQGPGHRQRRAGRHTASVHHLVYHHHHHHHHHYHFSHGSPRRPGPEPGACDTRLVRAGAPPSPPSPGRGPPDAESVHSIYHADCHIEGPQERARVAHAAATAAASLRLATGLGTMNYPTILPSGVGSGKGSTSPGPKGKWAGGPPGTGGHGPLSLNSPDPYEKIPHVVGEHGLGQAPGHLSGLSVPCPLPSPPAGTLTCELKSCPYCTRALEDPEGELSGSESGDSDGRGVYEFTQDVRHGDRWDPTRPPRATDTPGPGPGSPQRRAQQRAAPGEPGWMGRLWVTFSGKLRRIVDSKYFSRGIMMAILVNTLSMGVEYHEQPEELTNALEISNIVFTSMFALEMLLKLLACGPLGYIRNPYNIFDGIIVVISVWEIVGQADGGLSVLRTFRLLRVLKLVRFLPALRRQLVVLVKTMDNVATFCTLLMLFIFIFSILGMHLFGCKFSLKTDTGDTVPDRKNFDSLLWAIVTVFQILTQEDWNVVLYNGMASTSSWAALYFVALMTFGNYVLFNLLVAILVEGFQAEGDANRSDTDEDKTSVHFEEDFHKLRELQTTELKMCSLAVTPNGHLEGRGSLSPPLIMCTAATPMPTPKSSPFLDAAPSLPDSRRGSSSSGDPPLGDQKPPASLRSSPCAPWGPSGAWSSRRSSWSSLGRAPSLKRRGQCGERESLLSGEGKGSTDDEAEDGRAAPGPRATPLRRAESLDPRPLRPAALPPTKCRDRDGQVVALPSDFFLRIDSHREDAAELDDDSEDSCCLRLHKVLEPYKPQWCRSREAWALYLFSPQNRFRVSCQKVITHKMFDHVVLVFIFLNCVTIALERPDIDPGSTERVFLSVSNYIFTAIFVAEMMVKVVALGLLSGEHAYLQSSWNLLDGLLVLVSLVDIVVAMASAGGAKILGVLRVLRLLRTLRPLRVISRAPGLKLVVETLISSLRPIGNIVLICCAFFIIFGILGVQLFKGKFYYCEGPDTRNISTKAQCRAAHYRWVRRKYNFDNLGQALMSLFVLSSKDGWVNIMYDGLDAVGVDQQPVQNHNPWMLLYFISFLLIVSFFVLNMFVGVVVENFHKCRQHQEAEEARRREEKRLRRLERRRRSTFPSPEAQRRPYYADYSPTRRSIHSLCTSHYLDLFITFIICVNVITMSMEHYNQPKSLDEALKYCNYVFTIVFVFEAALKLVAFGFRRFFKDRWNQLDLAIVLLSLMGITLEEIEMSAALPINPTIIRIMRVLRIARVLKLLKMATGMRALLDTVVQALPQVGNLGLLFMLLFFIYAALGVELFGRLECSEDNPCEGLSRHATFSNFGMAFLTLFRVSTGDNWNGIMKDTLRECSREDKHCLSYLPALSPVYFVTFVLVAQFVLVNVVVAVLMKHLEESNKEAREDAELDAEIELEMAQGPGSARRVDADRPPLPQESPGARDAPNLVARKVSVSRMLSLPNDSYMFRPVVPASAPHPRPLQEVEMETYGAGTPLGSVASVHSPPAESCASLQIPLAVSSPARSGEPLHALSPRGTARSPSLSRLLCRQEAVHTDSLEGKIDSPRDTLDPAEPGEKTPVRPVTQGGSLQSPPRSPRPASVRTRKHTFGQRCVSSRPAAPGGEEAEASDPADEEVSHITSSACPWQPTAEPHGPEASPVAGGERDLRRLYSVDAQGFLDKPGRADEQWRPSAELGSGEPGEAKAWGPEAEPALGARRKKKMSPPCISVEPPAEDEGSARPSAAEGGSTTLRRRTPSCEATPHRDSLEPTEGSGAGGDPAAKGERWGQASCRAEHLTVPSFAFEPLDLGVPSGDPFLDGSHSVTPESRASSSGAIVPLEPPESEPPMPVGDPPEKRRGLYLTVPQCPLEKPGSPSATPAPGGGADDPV

In the case of `O=C1CN(C(=O)CNc2cc(F)cc(C(F)(F)F)c2)CCN1` [Compound 11, 4-(2-(3-fluoro-5-(trifluoromethyl)phenylamino)acetyl)piperazin-2-one], the “Rat SNL Tactile Allodynia (% Antiallodynia)” value in data set [1] (1 hour) worked out at 9%; in data set [1] (2 hours), 4%; in data set [1] (4 hours), 1%.

For the compound `CC1(C)C(=O)NCCN1C(=O)CNc1cc(C(F)(F)F)cc(C(F)(F)F)c1` [Compound 12, 4-(2-(3,5-bis(trifluoromethyl)phenylamino)acetyl)-3,3-dimethylpiperazin-2-one], the “Rat SNL Tactile Allodynia (% Antiallodynia)” value is 9% in data set [1] (1 hour), 11% in data set [1] (2 hours) and 42% in data set [1] (4 hours).

In the case of `O=C1CNCCN1C(=O)CNc1cc(F)cc(F)c1` [Compound 3, 1-(2-(3,5-difluorophenylamino)acetyl)piperazin-2-one], the entries for the “Rat SNL Tactile Allodynia (% Antiallodynia)” value in data set [1] (1 hour) and in data set [1] (4 hours) were 1% and 4%, respectively.

Turning to `O=C(CN1CCNCC1=O)NCc1cc(C(F)(F)F)cc(C(F)(F)F)c1` [Compound 20, N-(3,5-bis(trifluoromethyl)benzyl)-2-(2-oxopiperazin-1-yl)acetamide], the Fraction current remaining in data set [2] (concentration tested 30 μM) worked out at 0.87.

Consider `CC1(C)CN(CC(=O)Nc2cc(C(F)(F)F)cc(C(F)(F)F)c2)C(=O)CN1` [Compound 13, N-(3,5-bis(trifluoromethyl)phenyl)-2-(5,5-dimethyl-2-oxopiperazin-1-yl)acetamide], for which the “Rat SNL Tactile Allodynia (% Antiallodynia)” value is reported as 16% in data set [1] (1 hour), 8% in data set [1] (2 hours) and 5% in data set [1] (4 hours). In addition, the “Anti-allodynia in rat SNL tactile allodynia (in words)” value in data set [1] (at 60 minutes compared to baseline and post-SNL) is given as “significant anti-allodynia”. For the same compound, the “Dose Normalized AUC” value in data set [3] turned out to be 458 nM·h. Besides, the “Dose Normalized Cmax” value in data set [3] is reported as 172 nM. The Tmax in data set [3] was 40.2 min.

On to `O=C1CN(C(=O)CNc2cc(C(F)(F)F)cc(C(F)(F)F)c2)CCN1` [Compound 10, 4-(2-(3,5-bis(trifluoromethyl)phenylamino)acetyl)piperazin-2-one], for which the “Rat SNL Tactile Allodynia (% Antiallodynia)” value was determined as 10% in data set [1] (1 hour), 13% in data set [1] (2 hours) and 15% in data set [1] (4 hours). In addition, the figures for the Fraction current remaining in data set [2] (concentration tested 10 μM) and in data set [2] (concentration tested 100 μM) were 0.91 and 0.74, respectively. Besides, the “Dose Normalized AUC” value in data set [3] is listed as 1,192 nM*h. Moreover, the “Dose Normalized Cmax” value in data set [3] is reported as 355 nM. Further, the time of peak concentration (Tmax) in data set [3] stood at 72 min.

With `O=C(NCCN1CCNCC1=O)c1cc(F)cc(C(F)(F)F)c1` [Compound 23, 3-fluoro-N-(2-(2-oxopiperazin-1-yl)ethyl)-5-(trifluoromethyl)benzamide], the Fraction current remaining in data set [2] (concentration tested 30 μM) came to 0.91.

`O=C(CN1CCNCC1=O)Nc1cc(F)c(F)cc1F` [Compound 2, 2-(2-oxopiperazin-1-yl)-N-(2,4,5-trifluorophenyl)acetamide]: the “Fraction of current recovered at 5.1 s interval” value in data set [4] (5.1 s interval) is recorded as 0.98. The “Fraction current remaining at −40 mV” value in data set [4] (at −40 mV) is given as 0.58. In data set [4] (setting [5]), the V1/2 fast inactivation is listed as −65 mV and the V1/2 slow inactivation is reported as −80 mV.
